The test system of series [1] is PANC-1 cells. The series is described as follows: cellular uptake of Pt by ICP-MS, PANC-1. Type of series: cell-based, human. The conditions noted are these: PANC-1 cells, 6 h incubation, ICP-MS. Here is the method:
Cellular uptake. All incubations were carried out in the dark. After the designated incubation period, the medium was removed, and the cells were harvested with trypsin and rinsed twice with PBS (1×, 20 mM, pH 7.4), followed by digestion and ICP-MS.
Cancer cells were seeded in a 6-well plate at a density of 5×10^5 cells per well. After incubation for 24 h, the cells were treated with each complex for 6 h.
Cancer cells preincubated with metabolic inhibitor (MIs) were also evaluated. These cells were preincubated with 2-deoxy-D-glucose and oligomycin (50 mM and 5 μM, respectively, 1 h) or NH4Cl (50 mM, 1 h) at 37 ℃ followed by incubation with DMEM containing CDDP, I or II at 37 ℃ for 6 h.
Digestion. Cell pellets were collected by centrifugation and then digested with nitric acid (100 µL) for 2 h at 95 °C, followed by the addition of H2O2 (50 µL) at 95 °C for 0.5 h. HCl (100 µL) was added and kept at 95 °C until the total volume was less than 20 μL. Water was then added to dilute the solution to 1 mL, and the final Pt content was determined by ICP-MS.

Series [2] relates to Pan02 cells. As to the kind of experiment: 72 h MTT cytotoxicity, Pan02. Type of series: cell-based, mouse. As to the method:
(§1) Cytotoxicity. Tumor cells were cultured overnight after inoculation in RPMI-1640 medium or DMEM supplemented with 10% FBS. All cultures were maintained in an incubator in a highly humidified atmosphere of 95% air with 5% CO2 at 37 °C. Growth inhibition was measured with an MTT assay. Briefly, 2800–7000 cells per well in culture medium (100 μL) were plated in 96-well plates (Corning). The cells were treated in triplicate with different concentrations of complexes at 37 ℃ for 72 h. Stock solutions of CDDP and oxoplatin were prepared in PBS, while stock solutions of conjugates I and II and the ligand MSA-2 were prepared in DMSO. The stock solutions were diluted in complete medium (DMSO < 0.5%). An aliquot of MTT solution (40 μL, 2.5 mg·mL^–1) in PBS buffer was added to each well and incubated for 4 h. The supernatant was removed and DMSO (150 μL) was added to solubilize the formazan crystals. The amount of formazan was determined using a microplate reader at 570 nm after the plates were shaken for 30 min. The optical density (OD) was used to calculate the percentage of viable cells relative to untreated control values. Background readings for MTT incubated in cell-free medium were subtracted from each value before calculation. […] The mean IC50 values were calculated using data from three replicates.

For series [3], the system named is BxPC3 cells. The series is described as follows: 72 h MTT cytotoxicity, BxPC3. Type of series: cell-based, human. Here is the method:
as §1

Series [4] can be described thus: H&E histology of major organs after treatment. Type of series: in vivo, mouse. The conditions noted are these: C57BL/6 mice after treatment, 10.0 μmol/kg. As to the method:
Hematoxylin and eosin staining. Tissue samples were subjected to histopathological examination using hematoxylin and eosin (H&E) staining. Mouse organs (heart, liver, spleen, lungs and kidneys) were collected in 4% paraformaldehyde for proper fixation and then embedded in paraffin using a tissue embedding machine. Sections were prepared in an orderly manner by dewaxing, dehydration, and H&E staining. The tissue morphology was observed under a fluorescence microscope (Olympus BX41, Japan).

Series [5] relates to PANC-1 cells. As to the kind of experiment: 72 h MTT cytotoxicity, PANC-1. It is filed as cell-based, human. Here is the method: as §1
Series [6] concerns HK-2 cells. As to the kind of experiment: 72 h MTT cytotoxicity, HK-2. Type of series: cell-based. Here is the method:
as §1

Series [7] concerns MCF-7 cells. The series is described as follows: 72 h MTT cytotoxicity, MCF-7. Type of series: cell-based, human. Here is the method: as §1
For series [8], the system named is Caov3 cells. The series is described as follows: 72 h MTT cytotoxicity, Caov3. Type of series: cell-based, human. As to the method:
as §1

In series [9] the test system is Pan02 tumors. As to the kind of experiment: in vivo antitumor activity, C57BL/6 mice bearing Pan02 tumors. Particulars: C57BL/6 mice, Pan02 tumors, 10.0 μmol/kg every 2 days for 16 days, intravenous. More on the design: species or system mouse. Here is the method: In vivo antitumor activity. Female C57BL/6 mice (6–8 weeks old) were subcutaneously implanted with pan02 cells (2 × 10^6) in the right flank. Once the tumor volume reached approximately 60 mm^3, the mice were assigned to 4 groups at random (n = 5–8) and received treatment with PBS, CDDP (10.0 μmol/kg), I (10.0 μmol/kg), or a mixture of CDDP (10.0 μmol/kg) and MSA-2 (10.0 μmol/kg). The mice received 9 treatments. Changes in body weight and tumor volume were recorded. All the experimental procedures utilizing mice were performed in accordance with the Guidelines for Care and Use of Laboratory Animals of Nanjing University and experiments were approved by the Institutional Animal Care and Use Committee of Nanjing University (IACUC-2101001, SL-019-00).

Series [10] relates to BMDCs cultured with Pan02 cell CM. The series is described as follows: IFN-β ELISA of BMDCs incubated with conditioned medium of drug-treated Pan02 cells. Type of series: cell-based, mouse. Particulars: Pan02 treated 48 h at 5 μM (Pt-E-I 20 μM); BMDCs 50% CM, 18 h. Here is the method: (§2) ELISA. Bone marrow-derived dendritic cells (BMDCs) were prepared according to the following method. Briefly, femurs and tibias were removed from 4-6 week-old C57BL/6 mice, and the bone marrow cells were isolated. The bone marrow cells were incubated in T cell medium [RPMI-1640 medium (with GlutaMAX), supplemented with 10% FBS, 1% HEPES, 1% NEAA, 1% sodium pyruvate, and 0.1% βME] containing 20 ng/mL GM-CSF for 6 days after erythrocyte lysis, during which time half of the medium was replaced with fresh T cell medium once and the cytokines were supplemented. Then, the BMDCs were harvested on day 7 for further study.
Pan02 tumor cells were treated with various drugs at a concentration of 5 μM for 48 h, and then the drug-pretreated tumor cell supernatant was obtained by centrifugation at a speed of 12000 rpm/min for 5 min and used as conditioned media (CM) subsequently.
(§3) BMDCs were cultured with 50% CM plus 50% fresh medium for 18 h. In addition, BMDCs were cultured with fresh medium containing different complexes or mixtures (15 μM CDDP and I, a mixture of I and 8 equiv. AsA, and equal AsA). Then, all the BMDC supernatant was collected and centrifuged for subsequent cytokine analysis using ELISA kits, which were performed according to the manufacturer’s instructions.
A general note: ELISA stands for enzyme-linked immunosorbent assay.

Series [11] relates to cancer cell lines (MCF-7, Caov3, PANC-1, BxPC3, Pan02). The series is described as follows: 72 h MTT cytotoxicity, panel of cancer cell lines. Type of series: cell-based. Particulars: read-out: IC50 in these cancer cell lines. Here is the method: as §1
Series [12] deals with STING pathway in BMDCs. As to the kind of experiment: IFN-β and IL-6 ELISA in supernatants of BMDCs treated with complexes. Type of series: cell-based, mouse. Particulars: 18 h, ELISA, 15 μM. Here is the method:
as §2, §3

A short description of series [13]: octanol-water partition coefficient, shake-flask, ICP-MS. It is filed as physicochemical. Particulars: n-octanol / phosphate buffer 10 mM pH 7.4, room temperature. Here is the method: Lipid-water partition coefficient. The shake-flask method was used to measure the partition coefficients of CDDP, I and II. Briefly, a mixture containing equal volumes of n-octanol and phosphate buffer (10 mM, pH 7.4) was shaken on a mechanical shaker at room temperature for 24 h. Complexes (10 mM) in phosphate buffer (presaturated with n-octanol) were mixed with an equal volume of n-octanol (presaturated with phosphate buffer), and the mixture was shaken for 24 h at room temperature. Centrifugation was carried out at 2500 rpm for 30 min to separate the two phases. The aqueous layer was carefully separated, and the Pt content in the initial and final aqueous phases was analyzed by inductively coupled plasma mass spectrometry (ICP-MS). The log PO/W was measured using the following equation: log PO/W = log [(Ptinitial ‒ Ptfinal)/Ptfinal].

Series [14] is described as follows: reduction by ascorbic acid (AsA) followed by 1H-/195Pt-NMR. It is filed as physicochemical. The conditions noted are these: 20 mM, 8 equiv. AsA, 5:1 d6-DMSO:D2O, 37 °C, dark. Here is the method: Reduction of I and II. Samples were prepared by reacting I or II (20 mM) with 8 equiv. AsA in 5:1 d6-DMSO:D2O solutions. The time course of the reaction was monitored by ^1H-NMR and ^195Pt-NMR after incubation of the samples were incubated at 37 °C for 0, 3, 6, 12, 24, 36, 48, 60, 72, 84, 96, or 120 h in the dark.

Read-outs that look alike come from different tables or passages of the source.

As usually defined, the IC50 is the concentration at which inhibition is half-maximal. For the compound `[NH2][Pt]([NH2])([Cl])[Cl]` [CDDP, cisplatin], the “cellular Pt content” value in series [1] amounted to 1.7 ng Pt/mg protein. The IC50 in series [2] came to 8.3 ± 0.6 µM; in series [3], 1.6 ± 0.1 µM; in series [5], 11.1 ± 1.3 µM; in series [6] (human normal kidney cell line), 8.2 ± 0.5 µM; in series [7], 5.4 ± 0.3 µM; in [8], 26.8 ± 2.2 µM. Besides, the “histological findings in major organs” value in [4] was “substantial blood cell stasis in the liver blood sinuses and thickening of the alveolar wall as well as large infiltrates of inflammatory cells in the trachea and bronchus”. The compound also showed a tumor volume in series [9] of 200.2 ± 20.6 mm^3. In [10], the “IFN-β secretion by BMDCs incubated with treated Pan02 cell CM” value is “slightly increased”.

`COc1cc2cc(C(=O)CCC(=O)O)sc2cc1OC` [MSA-2]: the IC50 in [2] (Mus musculus, Pan02) was above 50 µM; in series [11], above 50 µM; in [3] (Homo sapiens, BXPC-3), above 50 µM; in series [5] (Homo sapiens, PANC-1) it was above 50 µM; in [6] (HK-2, human normal kidney cell line) it was above 50 µM; in [7] (Homo sapiens, MCF7), above 50 µM. Also, the IC50 in series [8] (Homo sapiens, Caov-3) is above 50 µM. Moreover, the “IFN-β secretion by BMDCs” value in [12] is recorded as “robust”. Besides, the “IL-6 secretion by BMDCs” value in [12] is reported as “robust”. Besides, the “IFN-β secretion by BMDCs incubated with treated Pan02 cell CM” value in series [10] is on record as “moderate”.

Turning to `N.N.[Cl-].[Cl-].[OH-].[OH-].[Pt+4]` [Oxoplatin, Cis-diamminedichloro-trans-dihydroxyplatinum], the IC50 is above 50 µM in [2]; above 50 µM in series [3]; above 50 µM in series [5]; 38.7 ± 4.1 µM in series [6] (human normal kidney cell line); 8.2 ± 0.7 µM in series [7]; above 50 µM in [8].

Regarding `COc1cc2cc(C(=O)CCC(=O)[O][Pt]([NH2])([NH2])([Cl])([Cl])[O]C(=O)CCC(=O)c3cc4cc(OC)c(OC)cc4s3)sc2cc1OC` [conjugate II], the “cellular Pt content” value in series [1] turned out to be 2.3 ng Pt/mg protein. Moreover, the IC50 in [2] is 8.4 ± 0.7 µM; in [3], 4.9 ± 0.8 µM; in series [5] it was 6.9 ± 0.9 µM; in series [6] (human normal kidney cell line), 3.6 ± 1.2 µM; in series [7], above 64 µM; in series [8], 5.3 ± 0.4 µM. Further, the “octanol-water partition coefficient (logPo/w)” value in series [13] is on record as 2.1. In series [14], the “time at which reduction by AsA finished” value came to 120 h.
